# Assay results taken from publication PMC10353390, “Biological and Structural Analyses of New Potent Allosteric Inhibitors of HIV-1 Integrase” (Antimicrobial Agents and Chemotherapy, 2023).
# Read-outs that look alike come from different tables or passages of the source.
# Key:
# [1] = system: NL4-3 HIV-1 with INLAI-selected IN single point mutations; assay type: cell-based
# [2] = system: HIV-1 strains resistant to INSTIs, NRTIs, NNRTIs or PIs; assay type: cell-based
# In short: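 Cell viability (CellTiter-Glo luminescence) served as read-out in MT4 cells at 10^6/mL, infected 2 h at MOI 0.001 in presence of graded compound concentrations. Viruses: resistance-mutation recombinants in NL4-3 backbone plus resistant clinical isolates.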
# NL4-3 HIV-1 strain = test: Multiple-round infection assay in MT4 cells, NL4-3; assay type: cell-based; settings: MT4 cells
# [3] = system: recombinant NL4-3 viruses with polymorphisms at IN positions 124 and 125; test: Multiple-round infection of MT4 cells with recombinant NL4-3 viruses polymorphic at IN positions 124 and 125; assay type: cell-based, HIV-1
# Source text: Located on the HIV-1 IN CCD dimerization interface, the principal INLAI binding pocket overlaps with a hot spot of amino acid sequence polymorphism involving IN residues 124 and 125 ([16]). To test if the new INLAIs maintained antiviral activity against major polymorphisms, we introduced all major combinations of residues found in circulating HIV-1 strains at positions 124 and 125 into NL4-3 HIV-1 molecular clone. In total, we evaluated 15 such combinations that collectively covered 98% of all HIV-1 clade polymorphisms involving these positions ([48]). To gauge effects on the antiviral activity, we calculated the EC50 fold change (FC) relative to wild type NL4-3 HIV-1 strain that features Thr124 and Thr125 (TT; specific polymorphisms are referred to by a single letter amino acid code).
# (§1) MT4 cells growing exponentially at the density of 10^6/mL were infected with HIV-1 strain NL4-3 at a multiplicity of infection (MOI) of 0.001 for 2 h in the presence of different concentrations of compounds, and the CellTiter-Glo luminescent reagent (Promega) was used to quantify cell viability as described previously ([12]).
# [4] = system: VSV-G-pseudotyped NL4-3Δenv-luc; test: microbe, parasite or virus in culture; assay type: cell-based, HIV-1
# [5] = system: primary HIV-1 isolates with polymorphisms at IN positions 124 and 125; test: Multiple-round infection of MT4 cells with primary HIV-1 isolates polymorphic at IN positions 124 and 125; assay type: cell-based; settings: primary isolate
# Description: Next, we evaluated the potency of the BDM-2 series of INLAIs against several primary HIV-1 isolates with polymorphisms at IN positions 124 and 125.
# as §1
# [6] = Cytotoxicity assay in MT4 cells; assay type: cell-based; settings: human, MT4 cells (proliferating human T-cell line), CellTiter-Glo
# Source text: Growth inhibition was monitored in a proliferating human T-cell line (MT4) with different concentrations of compounds, using the CellTiter-Glo luminescent reagent (Promega), as previously described ([12]).
# HIV-1 IN = biological target: T1, HIV-1 IN (Human immunodeficiency virus type 1 group M subtype B, UniProt P12497); test: HTRF IN multimerization assay; assay type: biochemical; settings: mean ± SD
# T1 construct: made in house
# Source text: A key property of INLAIs is the ability to promote HIV-1 IN homo-multimerization ([39][–][42]). […] The maximal signal (plateau) in our IN aggregation assay corresponds to the highest HTRF signal increase under saturating INLAI concentration, relative to baseline level. Thus, MUT916, MUT884, MUT871, and MUT872 increased HIV-1 IN aggregation 3.7 to 4.4-fold, while BDM-2, BI-224436, and S-I-82 did so 5 to 6-fold (Table 1).
# [7] = biological target: HIV-1 IN-LEDGF/p75 interaction (Human immunodeficiency virus type 1 group M subtype B, UniProt P12497); test: biochemical
# [8] = biological target: CCD of HIV-1 IN and IBD of LEDGF/p75 (Human immunodeficiency virus type 1 group M subtype B, UniProt P12497); test: biochemical
# [9] = system: lab-adapted and clinical HIV-1 isolates; test: Infection assays in primary T CD4+ lymphocytes; assay type: cell-based; settings: Human immunodeficiency virus 1, Lymphocyte
# HXB2 HIV-1 strain = test: Multiple-round infection assay in MT4 cells, HXB2; assay type: cell-based; settings: Human immunodeficiency virus 1, HXB2; multiple-round infection, MT4 cells; mean ± SD, n > 5; read-out: EC50 HXB2
# In short: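 Antiviral read-out was CellTiter-Glo luminescent viability of exponentially growing MT4 cells (10^6/mL). Cells were exposed to HIV-1 for 2 h at an MOI of 0.001 while compound was present at varying concentrations.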
# [10] = INSTI-resistant, NL4-3 background
smiles,measurement,setting,value
Cc1ccc(C2CC2)c(-c2ccc3c(c2C)CCCO3)c1[C@H](OC(C)(C)C)C(=O)O [MUT871],"EC50 fold change compared to wild type NL4-3, A128T",[1],2
same,"EC50 fold change compared to wild type NL4-3, H171Q",[1],6
same,"EC50 fold change compared to wild type NL4-3, N222K",[1],3
same,"EC50 fold change compared to wild type NL4-3, T174I",[1],323
same,"EC50 fold change compared to wild type NL4-3, Y99H",[1],4
same,"Fold change in EC50 relative to NL4-3, E92Q",[2]; [10],1
same,"Fold change in EC50 relative to NL4-3, G140S",[2]; [10],1
same,"Fold change in EC50 relative to NL4-3, G140S/Q148H",[2]; [10],1
same,"Fold change in EC50 relative to NL4-3, N155H",[2]; [10],1
same,"Fold change in EC50 relative to NL4-3, Q148H",[2]; [10],1
same,"Fold change in EC50 relative to NL4-3, Y143R",[2]; [10],1
same,"Fold change in EC50 relative to NL4-3, NLAY351717",[2]; NRTI-resistant clone,1
same,"Fold change in EC50 relative to NL4-3, NLAY351753",[2]; NRTI/NNRTI-resistant clone,1
same,"Fold change in EC50 relative to NL4-3, K103N/Y181C","[2]; NRTI/NNRTIs group, NL4-3 background",1
same,"Fold change in EC50 relative to NL4-3, ARP-4595",[2]; PI-resistant virus,1
same,"Fold change in EC50 relative to NL4-3, ARP-4596",[2]; PI-resistant virus,1
same,"Fold change in EC50 relative to NL4-3, ARP-11801",[2]; PI-resistant virus,1
same,"Fold change in EC50 relative to NL4-3, ARP-11803",[2]; PI-resistant virus,1
same,"Fold change in EC50 relative to NL4-3, ARP-11807",[2]; PI-resistant virus,1
same,"Fold change in EC50 relative to NL4-3, ARP-11808",[2]; PI-resistant virus,1
same,EC90,"NL4-3 HIV-1 strain; Human immunodeficiency virus 1, NL43, multiple-round infection, from dose response curves, read-out: EC90 NL4-3",4.6 ± 1.6 nM
same,EC50,"NL4-3 HIV-1 strain; Human immunodeficiency virus 1, NL43, multiple-round infection, mean ± SD, n > 5, read-out: EC50 NL4-3",3.1 ± 1 nM
same,Selectivity index CC50/EC50 NL4-3,NL4-3 HIV-1 strain,"14,838"
same,"Fold change in EC50 relative to parental NL4-3, AA","[3]; recombinant NL4-3, IN 124/125 AA",1
same,"Fold change in EC50 relative to parental NL4-3, AM","[3]; recombinant NL4-3, IN 124/125 AM",0.4
same,"Fold change in EC50 relative to parental NL4-3, AT","[3]; recombinant NL4-3, IN 124/125 AT",1
same,"Fold change in EC50 relative to parental NL4-3, AV","[3]; recombinant NL4-3, IN 124/125 AV",1
same,"Fold change in EC50 relative to parental NL4-3, GA","[3]; recombinant NL4-3, IN 124/125 GA",3
same,"Fold change in EC50 relative to parental NL4-3, GT","[3]; recombinant NL4-3, IN 124/125 GT",2
same,"Fold change in EC50 relative to parental NL4-3, NA","[3]; recombinant NL4-3, IN 124/125 NA",2
same,"Fold change in EC50 relative to parental NL4-3, NT","[3]; recombinant NL4-3, IN 124/125 NT",1
same,"Fold change in EC50 relative to parental NL4-3, NV","[3]; recombinant NL4-3, IN 124/125 NV",1
same,"Fold change in EC50 relative to parental NL4-3, SA","[3]; recombinant NL4-3, IN 124/125 SA",1
same,"Fold change in EC50 relative to parental NL4-3, ST","[3]; recombinant NL4-3, IN 124/125 ST",1
same,"Fold change in EC50 relative to parental NL4-3, TA","[3]; recombinant NL4-3, IN 124/125 TA",1
same,"Fold change in EC50 relative to parental NL4-3, TM","[3]; recombinant NL4-3, IN 124/125 TM",0.3
same,"Fold change in EC50 relative to parental NL4-3, TV","[3]; recombinant NL4-3, IN 124/125 TV",1
same,EC50 ratio (single/multiple-round infection),[4],203
same,EC50,"[4]; Human immunodeficiency virus 1, NL43, MT4, read-out: EC50 in single-round infection",630 ± 10 nM
same,"Fold change in EC50 relative to parental NL4-3, CAM2BBY (CRF02)",[5]; IN 124/125 AA,2
same,"Fold change in EC50 relative to parental NL4-3, E0836M4 (D)",[5]; IN 124/125 AA,2
same,"Fold change in EC50 relative to parental NL4-3, KER2008 (A)",[5]; IN 124/125 AA,1
same,"Fold change in EC50 relative to parental NL4-3, NP1525 (CRF01)",[5]; IN 124/125 AA,1
same,"Fold change in EC50 relative to parental NL4-3, NP1695 (CRF02)",[5]; IN 124/125 AA,3
same,"Fold change in EC50 relative to parental NL4-3, TZA125 (C)",[5]; IN 124/125 AA,1
same,"Fold change in EC50 relative to parental NL4-3, KSM4030 (A)",[5]; IN 124/125 GA,2
same,"Fold change in EC50 relative to parental NL4-3, vGA (C)",[5]; IN 124/125 GA,5
same,"Fold change in EC50 relative to parental NL4-3, 99ET14 (C)",[5]; IN 124/125 NA,2
same,"Fold change in EC50 relative to parental NL4-3, NP1538 (B)",[5]; IN 124/125 NA,2
same,"Fold change in EC50 relative to parental NL4-3, vNA_1 (B)",[5]; IN 124/125 NA,3
same,"Fold change in EC50 relative to parental NL4-3, vNA_2 (CRF02)",[5]; IN 124/125 NA,3
same,"Fold change in EC50 relative to parental NL4-3, vNV (B)",[5]; IN 124/125 NV,3
same,"Fold change in EC50 relative to parental NL4-3, vSA_1 (B)",[5]; IN 124/125 SA,4
same,"Fold change in EC50 relative to parental NL4-3, vSA_2 (CRF02)",[5]; IN 124/125 SA,3
same,"Fold change in EC50 relative to parental NL4-3, vTA_1 (B)",[5]; IN 124/125 TA,2
same,"Fold change in EC50 relative to parental NL4-3, vTA_2 (CRF02)",[5]; IN 124/125 TA,2
same,CC50,[6],46000 ± 11000 nM
same,AC50,HIV-1 IN; concentration for 50% maximum activation of multimerization,31 ± 20 nM
same,IN multimerization Plateau,HIV-1 IN; maximum multimerization reached versus baseline,440 ± 53%
same,IC50,[7],14 ± 5 nM
same,IC50,[8],32 ± 14 nM
same,EC50,[9]; read-out: EC50 33913N (B),1.5 ± 0.6 nM
same,EC50,[9]; read-out: EC50 HXB2 (B),1.8 ± 0.3 nM
same,EC50,[9]; read-out: EC50 KER2008 (A),6.4 ± 1.3 nM
same,EC50,[9]; read-out: EC50 NL4-3 (B),2.8 ± 0.5 nM
same,EC50,[9]; read-out: EC50 NP1525 (CRF01_AE),3.5 ± 0.6 nM
same,EC50,[9]; read-out: EC50 NP1538 (B),4 ± 2.3 nM
same,EC50,HXB2 HIV-1 strain,1.4 ± 0.3 nM
